Test [1] has as its target T1, HIV-1 RT resistant mutant K103N/Y181C (Human immunodeficiency virus type 1 group M subtype B, UniProt P04585, K690N/Y768C).
T1 construct: The reverse transcriptase (RT) enzyme assay has been adapted to a 96-well microtiter plate format
Nature of the test: Reverse transcriptase (RT) enzymatic assay (IC50), PicoGreen fluorescence, resistant mutant. It counts as biochemical. Here is the method: (§1) Reverse Transcriptase (RT) Assays Enzymatic Assay (IC50)
The enzymatic assay employed is described as follows: The reverse transcriptase (RT) enzyme assay has been adapted to a 96-well microtiter plate format and uses PicoGreen™ as a fluorescent intercalator. More explicitly, the HIV-1 RT enzyme was thawed and appropriately diluted into Tris/HCl 50 mM pH 7.8 containing NaCl 60 mM, MgCl2∘6H2O 2 mM, DTT 6 mM, GSH 2 mM and 0.02% w/v Chaps to give ≈10 nM enzyme. To 10 μL of this enzyme solution was added 10 μL of inhibitor solution (40 μM to […] inhibitor in the same assay buffer as above containing 4% v/v DMSO). The plate was pre-incubated for 15 minutes at room temperature before proceeding to the next step. In this pre-incubation step, the highest and lowest inhibitor concentrations were 20 μM and 1.016 nM respectively and the concentration of DMSO was 2% v/v. Then the enzymatic reaction was initiated by addition of 20 μL of substrate solution. The final reaction mixture contained Tris/HCl 50 mM pH 7.8, NaCl 60 mM, MgCl2∘6H2O 2 mM, DTT 6 mM, GSH 2 mM, CHAPS 0.02% w/v, DMSO 1% v/v, poly rC 45 nM, dG15 4.5 nM, dGTP 3.6 μM, and ≈2.5 nM enzyme. In this incubation step, the highest and lowest inhibitor concentrations were 10 μM and 0.508 nM respectively. After addition of the substrate cocktail, the plate was covered with a plastic seal and incubated for 50 minutes at 37° C. in a dry incubator. The reaction was then quenched by addition of 5 μL of EDTA 0.5 M. The plate was shaken for 30 seconds at medium speed and incubated for 5 minutes at room temperature. Then 160 μL of PicoGreen™ 1:400 dilution from commercial stock (diluted in Tris 20 mM pH 7.5 with EDTA 1 mM) was added and the plate was shaken for 30 seconds and incubated for 10 minutes at room temperature. The plate was then analyzed using a POLARstar Galaxy fluorimeter (BMG Labtechnologies) with λex and λem of 485 nm and 520 nm respectively. […] Each row contained at its extremities a blank and a control well.
(§2) Table legend: A=>100; B=100-50; C=<50; NT=not tested

The subject of test [2] is HIV-1 (wild type) in C8166 LTRluc cells. Description: C8166 HIV-1 luciferase assay (EC50), wild type. It counts as cell-based. The conditions noted are these: Human immunodeficiency virus 1, C8166 HIV-1 luciferase assay (no *).
Description: (§3) C8166 HIV-1 Luciferase Assay (EC50)
(§4) Plasmid: pGL3 Basic LTR/TAR #12
Plasmid is the pGL3 Basic Vector (a promoterless luciferase expression vector from Promega catalogue #E1751) with the addition of HIV-1 H×B2 LTR sequence from nucleotide −138 to +80 (Sca1-HindIII) upstream of the luciferase gene and the gene for blasticidine resistance cloned in.
(§5) C8166 cells are a human T-lymphotrophic virus type 1 immortalized but nonexpressing line of cord blood lymphocytes and are highly permissive to HIV-1 infection. The reporter cells were made by electroporating C8166 cells with pGL3 Basic LTR/TAR and then selecting positive clones with blasticidine. The clone C8166-LTRluc #A8-F5-G7 was selected by 3 consecutive rounds of limiting dilution under blasticidine selection.
(§6) Media: Complete media consisting of: RPMI 1640+10% FBS+10^−5 M
(§7) β-mercaptoethanol+10 μg/ml gentamycin. Cultures are maintained in complete media with 5 μg/ml blasticidine, however, selection is removed for the assay.
(§8) Luciferase Assay Protocol
Serial dilutions of HIV-1 inhibitors compounds are prepared in complete media from 10 mM DMSO stock solutions. Eleven serial dilutions of 2.5× are made at 8× desired final concentration in a 1 ml deep well titer plate (96 wells). The 12th well contains complete media with no inhibitor and serves as the positive control. All samples contain the same concentration of DMSO (≦0.1% DMSO). A 25 μl aliquot of inhibitor is added, to triplicate wells, of a 96 well tissue culture treated clear view black microtiter plate (Corning Costar catalogue # 3904). The last row is reserved for uninfected C8166 LTRluc cells to serve as the background blank control and the first row is media alone.
Count C8166 LTRluc cells and place in a minimal volume of complete RPMI 1640 in a tissue culture flask (ex. 30×10^6 cells in 10 ml media/25 cm^2 flask). Infect cells with HIV-1 at a moi of 0.005. Incubate cells for 1.5 hours at 37° C. on a rotating rack in a 5% CO2 incubator. Resuspend cells in complete RPMI to give a final concentration of 25,000-cells/175 μl. Add 175 μl of cell mix to wells of 96 well microtiter plate containing 25 μl 8× inhibitors. Add 25,000 uninfected C8166-LTRluc cells/well in 200 μl complete RPMI to last row for background control. Incubate cells at 37° C. in 5% CO2 incubator for 3 days.
(§9) Add 50 μl Steady Glo (luciferase substrate T1/2=5 hours Promega catalogue # E2520) to each well of the 96 well plate. Determine the relative light units (RLU) of luciferase using the BMG LUMlstar Galaxy luminometer. Plates are read from the bottom for 2 seconds per well with a gain of 240.
(§10) The level of inhibition (% inhibition) of each well containing inhibitor was calculated with the following equation: […]
The calculated % inhibition values were then used to determine EC50, slope factor (n) and maximum inhibition (Imax) by the non-linear regression routine NLIN procedure of SAS using the following equation: […]
The results are listed in Table 9 as IC50(nM) and EC50 (nM).
as §2

Test [3] concerns HIV-1 resistant mutant K103N/Y181C in C8166 LTRluc cells. Description: C8166 HIV-1 luciferase assay (EC50), resistant mutant. It counts as cell-based. As to conditions: Human immunodeficiency virus 1, C8166, read-out: EC50 K103N/Y181C.
Description: as §3, §4, §5, §6, §7, §8
Eleven serial dilutions of 2.5× are made at 8× desired final concentration in a 1 ml deep well titer plate (96 wells). The 12th well contains complete media with no inhibitor and serves as the positive control. All samples contain the same concentration of DMSO (≦0.1% DMSO). A 25 μl aliquot of inhibitor is added, to triplicate wells, of a 96 well tissue culture treated clear view black microtiter plate (Corning Costar catalogue # 3904). The last row is reserved for uninfected C8166 LTRluc cells to serve as the background blank control and the first row is media alone.
Count C8166 LTRluc cells and place in a minimal volume of complete RPMI 1640 in a tissue culture flask (ex. 30×10^6 cells in 10 ml media/25 cm^2 flask). […] Incubate cells for 1.5 hours at 37° C. on a rotating rack in a 5% CO2 incubator. Resuspend cells in complete RPMI to give a final concentration of 25,000-cells/175 μl. Add 175 μl of cell mix to wells of 96 well microtiter plate containing 25 μl 8× inhibitors. Add 25,000 uninfected C8166-LTRluc cells/well in 200 μl complete RPMI to last row for background control. Incubate cells at 37° C. in 5% CO2 incubator for 3 days.
as §9, §10
The calculated % inhibition values were then used to determine EC50, slope factor (n) and maximum inhibition (Imax) by the non-linear regression routine NLIN procedure of SAS using the following equation:
as §2

Test [4] addresses T2, HIV-1 RT enzyme (wild type) (Human immunodeficiency virus type 1 group M subtype B, UniProt P04585).
T2 construct: The reverse transcriptase (RT) enzyme assay has been adapted to a 96-well microtiter plate format
Description: Reverse transcriptase (RT) enzymatic assay (IC50), PicoGreen fluorescence, wild type. It counts as biochemical. As to conditions: RT enzymatic assay, wild type; read-out: IC50 WT. The method, then: as §1
The enzymatic assay employed is described as follows: The reverse transcriptase (RT) enzyme assay has been adapted to a 96-well microtiter plate format and uses PicoGreen™ as a fluorescent intercalator. More explicitly, the HIV-1 RT enzyme was thawed and appropriately diluted into Tris/HCl 50 mM pH 7.8 containing NaCl 60 mM, MgCl2∘6H2O 2 mM, DTT 6 mM, GSH 2 mM and 0.02% w/v Chaps to give ≈10 nM enzyme. […] The plate was pre-incubated for 15 minutes at room temperature before proceeding to the next step. […] Then the enzymatic reaction was initiated by addition of 20 μL of substrate solution. […] After addition of the substrate cocktail, the plate was covered with a plastic seal and incubated for 50 minutes at 37° C. in a dry incubator. The reaction was then quenched by addition of 5 μL of EDTA 0.5 M. The plate was shaken for 30 seconds at medium speed and incubated for 5 minutes at room temperature. Then 160 μL of PicoGreen™ 1:400 dilution from commercial stock (diluted in Tris 20 mM pH 7.5 with EDTA 1 mM) was added and the plate was shaken for 30 seconds and incubated for 10 minutes at room temperature. […] Each row contained at its extremities a blank and a control well.
as §2

A word on the IC50: it is the midpoint of a concentration-inhibition curve. In test [1], `CC(C)c1ccc(-n2nnnc2SCC(=O)Nc2ccccc2[N+](=O)[O-])cc1` [Entry 142] yielded an IC50 of over 100 nM. The EC50 in test [2] is under 50 nM; in test [3] it was over 100 nM.

`CCN(CC)c1ccc(-n2nnnc2SCC(=O)Nc2ccccc2[N+](=O)[O-])cc1` [Entry 143]: in test [1], the IC50 is over 100 nM. In addition, the EC50 was under 50 nM in test [2] and over 100 nM in test [3].

As to `Cc1ccc(Cl)c(-n2nnnc2SCC(=O)Nc2ccccc2[N+](=O)[O-])c1` [Entry 145], the IC50 in test [4] is under 50 nM; in test [1], over 100 nM. Moreover, the values for the EC50 in test [2] and in test [3] were under 50 nM and over 100 nM, respectively.

For `Cc1cc(C)c(-n2nnnc2SCC(=O)Nc2ccccc2[N+](=O)[O-])c(Cl)c1` [Entry 146], the 50% inhibitory concentration (IC50) in test [4] is under 50 nM; in test [1] it was 50 to 100 nM. Also, the figures for the EC50 in test [2] and in test [3] were under 50 nM and 50 to 100 nM, respectively.

`Cc1cc(C)c(-n2nnnc2SCC(=O)Nc2ccccc2[N+](=O)[O-])c(Br)c1` [Entry 147]: the 50% inhibitory concentration (IC50) in test [4] was under 50 nM; in test [1], over 100 nM. Further, the values for the EC50 in test [2] and in test [3] were under 50 nM and 50 to 100 nM, respectively.

In the case of `O=C(CSc1nnnn1-c1cccc2ccccc12)Nc1ccccc1O` [Entry 211], the IC50 in test [4] was over 100 nM. Also, the values for the EC50 in test [2] and in test [3] were under 50 nM and over 100 nM, respectively.

Regarding `O=C(CSc1nnnn1-c1cccc2ccccc12)Nc1ccc(-c2ccccc2)cc1Cl` [Entry 238], the IC50 was under 50 nM in test [4] and over 100 nM in test [1]. For the same compound, the EC50 was 50 to 100 nM in test [2] and over 100 nM in test [3].

In the case of `O=C(CSc1nnnn1-c1cccc2ccccc12)Nc1ccc(O)cc1Cl` [Entry 246], the values for the IC50 in test [4] and in test [1] were under 50 nM and over 100 nM, respectively. Besides, the EC50 was under 50 nM in test [2] and over 100 nM in test [3].

Regarding `Cc1nnc(SCC(=O)Nc2ccccc2[N+](=O)[O-])n1-c1cccc2ccccc12` [Entry 403], the 50% inhibitory concentration (IC50) was under 50 nM in test [4] and over 100 nM in test [1]. Further, the EC50 in test [2] is under 50 nM; in test [3], over 100 nM.

In the case of `Cc1ccc(-c2ccccc2SCC(=O)Nc2ccccc2Cl)c(Cl)c1` [Entry 416], the figures for the IC50 in test [4] and in test [1] were under 50 nM and over 100 nM, respectively. The EC50 is under 50 nM in test [2] and over 100 nM in test [3].

On to `Cc1ccc(-c2ccccc2SCC(=O)Nc2ccccc2[N+](=O)[O-])c(Cl)c1` [Entry 417], for which the IC50 in test [4] was under 50 nM; in test [1], over 100 nM. Further, the EC50 in test [2] was under 50 nM; in test [3] it was over 100 nM.

With `CCc1nnc(SCC(=O)Nc2ccccc2[N+](=O)[O-])n1-c1cccc2ccccc12` [Entry 425], the half-maximal inhibitory concentration (IC50) in test [1] is over 100 nM. Also, the EC50 in test [2] is under 50 nM; in test [3], over 100 nM.

`Cc1ccc(-n2c(C)nnc2SCC(=O)Nc2ccccc2[N+](=O)[O-])c(Cl)c1` [Entry 427]: the IC50 in test [1] is over 100 nM. The EC50 in test [2] was under 50 nM; in test [3] it was over 100 nM.

For the compound `Cc1ccc(-n2c(C)nnc2SCC(=O)Nc2ccc(-c3ccccc3)cc2Cl)c(Cl)c1` [Entry 428], the IC50 in test [1] is over 100 nM. In addition, the figures for the EC50 in test [2] and in test [3] were under 50 nM and over 100 nM, respectively.

For the compound `Cc1ccc(-n2c(CCO)nnc2SCC(=O)Nc2ccc(-c3ccccc3)cc2Cl)c(Cl)c1` [Entry 429], the IC50 in test [4] is under 50 nM; in test [1] it was over 100 nM. For the same compound, the values for the EC50 in test [2] and in test [3] were under 50 nM and over 100 nM, respectively.

Consider `Cc1nnc(SCC(=O)Nc2ccccc2Cl)n1-c1ccc(C(C)(C)C)cc1Cl` [Entry 430], for which the figures for the IC50 in test [4] and in test [1] were under 50 nM and 50 to 100 nM, respectively. For the same compound, the EC50 in test [2] is under 50 nM; in test [3], 50 to 100 nM.

Take `Cc1ccc(-n2nnnc2SCC(=O)Nc2ccccc2Cl)c(Cl)c1` [Entry 501]: the values for the EC50 in test [2] and in test [3] were under 50 nM and over 100 nM, respectively.

For `CC(C)(C)c1ccc(-n2nnnc2SCC(=O)Nc2ccc(S(C)(=O)=O)cc2Cl)c(Cl)c1` [Entry 603], the EC50 in test [2] and in test [3] was under 50 nM throughout.

As for `Cc1ccc(-n2nnnc2SCC(=O)Nc2cccnc2Cl)c(Cl)c1` [Entry 803], the IC50 in test [1] was over 100 nM. Moreover, the EC50 in test [2] was under 50 nM; in test [3], over 100 nM.
